Key:
NS3 genotype 3a protease = target: T1, NS3 genotype 3a protease (UniProt Q81258); test: Ki determination, NS3 protease genotype 3a (fluorogenic depsipeptide substrate); format: biochemical, hepatitis C virus; conditions: 200 pM enzyme, 20 μM NS4A peptide, 2 μM substrate, read-out: Ki 3A
T1 construct: Purified NS3 protease domain (amino acids 1-181) of the genotype 1b and 3a virus were generated as above; fused on or other part: N-terminal hexahistidine tag and rTEV protease cleavage site (vector p28-N6H-Tev-NS3(181)3)
T1 sequence (Q81258 1033-1663): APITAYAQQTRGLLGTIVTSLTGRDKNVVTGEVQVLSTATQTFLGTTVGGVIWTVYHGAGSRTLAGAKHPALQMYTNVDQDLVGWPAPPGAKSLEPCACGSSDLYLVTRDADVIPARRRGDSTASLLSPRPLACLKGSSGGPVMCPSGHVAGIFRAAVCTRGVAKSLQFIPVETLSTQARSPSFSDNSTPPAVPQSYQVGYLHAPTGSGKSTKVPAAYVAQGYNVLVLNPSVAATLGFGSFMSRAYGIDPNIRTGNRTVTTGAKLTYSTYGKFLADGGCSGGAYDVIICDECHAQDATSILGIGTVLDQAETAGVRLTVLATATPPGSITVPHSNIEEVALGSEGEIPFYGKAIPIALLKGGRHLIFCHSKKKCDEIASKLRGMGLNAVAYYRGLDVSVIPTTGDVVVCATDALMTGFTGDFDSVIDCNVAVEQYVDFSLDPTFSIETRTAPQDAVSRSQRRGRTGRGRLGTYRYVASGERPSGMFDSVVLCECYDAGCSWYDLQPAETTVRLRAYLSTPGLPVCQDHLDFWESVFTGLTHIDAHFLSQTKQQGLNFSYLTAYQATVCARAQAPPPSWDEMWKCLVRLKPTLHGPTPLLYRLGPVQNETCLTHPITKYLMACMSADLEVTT
Summary of the method: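 Refolded His-tagged NS3 protease domain (aa 1-181, genotype 3a) at 200 pM with 20 μM NS4A peptide was pre-incubated 1 h at RT with inhibitor (100 nM–5 pM, 3-fold), then 2 μM FRET depsipeptide substrate was added in HEPES/40% glycerol/10% DMSO buffer. Steady-state rates over 90-120 min (ex 340/em 490 nm) versus inhibitor concentration gave Ki.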

[1] = test system: genotype 1b (Con1) wild-type transient HCV replicon in Huh-7-derived cells; test: Transient-transfected HCV replicon EC50, genotype 1b wild type; format: cell-based; conditions: Hepatitis C virus; transient-transfected replicon genotype 1b wild type, 72 h; read-out: EC50 1B WT

SMILES	Ki (NS3 genotype 3a protease)	EC50 [1]
CC[C@@H]1[C@@H]2CN(C(=O)[C@H](C(C)(C)C)NC(=O)O[C@]3(C)CCC[C@H]3CCCCCc3nc4ccc(OC)cc4nc3O2)[C@@H]1C(=O)N[C@]1(C(=O)NS(=O)(=O)C2(C)CC2)C[C@H]1CC(F)F [Example 41, (3aR,7S,10S,11S,12R,24aR)-7-tert-butyl-N-[(1R,2S)-2-(2,2-difluoroethyl)-1-{[(1-methylcyclopropyl)sulfonyl]carbamoyl}cyclopropyl]-11-ethyl-16-methoxy-3a-methyl-5,8-dioxo-1,2,3,3a,5,6,7,8,11,12,20,21,22,23,24,24a-hexadecahydro-10H-9,12-methanocyclopenta[18,19][1,10,3,6]dioxadiazacyclononadecino[11,12-b]quinoxaline-10-carboxamide]	0.79 nM	154 nM
CC[C@@H]1[C@@H]2CN(C(=O)[C@H](C(C)(C)C)NC(=O)O[C@@H]3C[C@H]3CC/C=C/C(F)(F)C3Nc4ccc(C#N)cc4N=C3O2)[C@@H]1C(=O)N[C@]1(C(=O)NS(=O)(=O)C2(C)CC2)C[C@H]1C(F)F (stereo partly drawn) [Example 78, (1aR,5S,8S,9S,10R,19E,22aR)-5-tert-butyl-14-cyano-N-[(1R,2R)-2-(difluoromethyl)-1-{[(1-methylcyclopropyl)sulfonyl]carbamoyl}cyclopropyl]-9-ethyl-18,18-difluoro-3,6-dioxo-1,1a,3,4,5,6,9,10,17,17a,18,21,22,22a-tetradecahydro-8H-7,10-methanocyclopropa[18,19][1,10,3,6]dioxadiazacyclononadecino[11,12-b]quinoxaline-8-carboxamide]	0.82 nM	156 nM
C[C@@H]1[C@@H]2CN(C(=O)[C@H](C(C)(C)C)NC(=O)O[C@@H]3C[C@H]3CCCCC(F)(F)c3nc4ccc(Cl)cc4nc3O2)[C@@H]1C(=O)N[C@]1(C(=O)NS(=O)(=O)C2(C)CC2)C[C@H]1C(F)F [Example 88, (1aR,5S,8S,9S,10R,22aR)-5-tert-butyl-14-chloro-N-[(1R,2R)-2-(difluoromethyl)-1-{[(1-methylcyclopropyl)sulfonyl]carbamoyl}cyclopropyl]-18,18-difluoro-9-methyl-3,6-dioxo-1,1a,3,4,5,6,9,10,18,19,20,21,22,22a-tetradecahydro-8H-7,10-methanocyclopropa[18,19][1,10,3,6]dioxadiazacyclononadecino[11,12-b]quinoxaline-8-carboxamide]	0.29 nM	5.5 nM
COc1ccc2nc3c(nc2c1)O[C@H]1CN(C(=O)[C@H](C(C)(C)C)NC(=O)O[C@@H]2C[C@H]2CCCCC3F)[C@H](C(=O)N[C@]2(C(=O)NS(=O)(=O)C3(C)CC3)C[C@H]2C(F)F)[C@@H]1C (stereo partly drawn) [Example 47, (1aR,5S,8S,9S,10R,22aR)-5-tert-butyl-N-[(1R,2R)-2-(difluoromethyl)-1-{[(1-methylcyclopropyl)sulfonyl]carbamoyl}cyclopropyl]-18-fluoro-14-methoxy-9-methyl-3,6-dioxo-1,1a,3,4,5,6,9,10,18,19,20,21,22,22a-tetradecahydro-8H-7,10-methanocyclopropa[18,19][1,10,3,6]dioxadiazacyclononadecino[11,12-b]quinoxaline-8-carboxamide]	0.19 nM	2 nM

Reference: patent US20150175655A1 (priority 2012, published 2015)
